Here are results for 29 compounds from US8785488B2 (Exelixis Patent Company LLC, priority 2009, dated 2014).

Like-named read-outs stand apart in the source and are kept apart here.

The assay addresses T1, human TGR5 (h-TGR5) (Homo sapiens, UniProt Q8TDU6).
T1 construct: expressed in transfected cells
T1 sequence (Q8TDU6 1-330): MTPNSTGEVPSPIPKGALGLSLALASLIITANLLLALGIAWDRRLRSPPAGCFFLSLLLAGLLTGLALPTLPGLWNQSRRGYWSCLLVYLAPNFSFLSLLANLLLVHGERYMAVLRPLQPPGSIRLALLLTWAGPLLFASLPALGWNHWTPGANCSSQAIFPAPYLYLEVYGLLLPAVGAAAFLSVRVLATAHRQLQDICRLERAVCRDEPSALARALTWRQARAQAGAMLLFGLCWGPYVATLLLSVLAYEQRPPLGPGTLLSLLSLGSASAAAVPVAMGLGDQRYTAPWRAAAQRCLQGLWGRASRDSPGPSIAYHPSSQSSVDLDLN
In words: TGR5/CRE-Luciferiase Assay (HEK 293 hTGR5/CRE-Luc cells). The assay is classed as cell-based. The protocol: Compounds were serially diluted in DMEM containing 5% DMSO and 5 μL of compound or media alone was transferred to each well and plates were incubated for 6 hours. Following incubation, 30 μL of lysis/luciferase buffer was added to each well. The luciferase activity was then measured on the EnVision™ plate reader and the dose response data was analyzed using ActivityBase.
In the following tables, EC50 values determined according to the TGR5 cAMP Assay described herein (cAMP); EC50 values determined according to the TGR5/CRE-Luciferiase Assay described herein (CRE-Luc). […] The following compounds in Tables 1 and 2 were made by using procedures described in the above Schemes and Examples, and, where applicable, by making any necessary substitutions of known materials that one skilled in the art would ordinarily understand how to do.

Where [1] appears, read: h-TGR5 CRE-Luc EC50, Table 1, read-out: CRE-Luc (EC50).
Setting [2] is: HEK 293 hTGR5/CRE-Luc cells, 6 hours incubation, luciferase activity, Table 2, read-out: h-TGR5CRE-Luc EC50 (CRE-Luc).

In the case of `CC(C)(c1ccc(F)c(F)c1)c1cnc(S(=O)(=O)Cc2ccc(F)cc2Cl)n1-c1ccc(F)cc1` [2-{[(2-chloro-4-fluorophenyl)methyl]sulfonyl}-5-[1-(3,4-difluorophenyl)-1-methylethyl]-1-(4-fluorophenyl)-1H-imidazole], under setting [1], the EC50 lay in the range of 1000 to 10000 nM. `CC(C)(Oc1ccc(C(C)(C)c2cnc(SCc3ccc(F)cc3Cl)n2-c2ccc(F)cc2)cc1Cl)C(=O)O` [2-[(2-chloro-4-{1-[2-{[(2-chloro-4-fluorophenyl)methyl]thio}-1-(4-fluorophenyl)-1H-imidazol-5-yl]-1-methylethyl}phenyl)oxy]-2-methylpropanoic acid]: the EC50 under setting [1] lay within 100 to 1000 nM. On to `CC(C)(c1ccc(F)c(F)c1)c1cnc(SCc2ccc(C(=O)O)cc2F)n1-c1ccc(F)cc1` [4-[({5-[1-(3,4-difluorophenyl)-1-methylethyl]-1-(4-fluorophenyl)-1H-imidazol-2-yl}thio)methyl]-3-fluorobenzoic acid], for which the EC50 under setting [1] fell in the range of 100 to 1000 nM. For `Fc1ccc(-n2c(Cc3ccc(Cl)c(F)c3)nnc2SCc2c(F)cccc2Cl)cc1` [Example 38], the EC50 under setting [2] lay within 100 to 1000 nM.

As for `CC(Oc1ccc(Cl)c(Cl)c1)c1ncc(C(C)(C)c2ccc(Cl)c(Cl)c2)n1-c1ccc(F)cc1` (centres unmarked) [5-[1-(3,4-dichlorophenyl)-1-methylethyl]-2-{1-[(3,4-dichlorophenyl)oxy]ethyl}-1-(4-fluorophenyl)-1H-imidazole], the EC50 under setting [1] is 1000 to 10000 nM.

As for `Fc1ccc(-n2c(Cc3ccc(Cl)c(Cl)c3)nnc2SCc2cccc(Cl)c2F)cc1` [Example 2], under setting [2], the EC50 lay within 1000 to 10000 nM. For the compound `CCN(CC)CCOc1cc(C(C)(C)c2cnc(SCc3c(F)cccc3Cl)n2-c2ccc(F)cc2)ccc1Cl` [2-[(2-chloro-5-{1-[2-{[(2-chloro-6-fluorophenyl)methyl]thio}-1-(4-fluorophenyl)-1H-imidazol-5-yl]-1-methylethyl}phenyl)oxy]-N,N-diethylethanamine], the EC50 under setting [1] was 100 to 1000 nM. Consider `CN1CCN(c2cc(CSc3ncc(C(C)(C)c4ccc(Cl)c(Cl)c4)n3-c3ccc(F)cc3)ccc2F)CC1` [1-{5-[({5-[1-(3,4-dichlorophenyl)-1-methylethyl]-1-(4-fluorophenyl)-1H-imidazol-2-yl}thio)methyl]-2-fluorophenyl}-4-methylpiperazine], for which the EC50 under setting [1] lay in the range of 1000 to 10000 nM.

On to `CC(C)(c1ccc(Cl)c(Cl)c1)c1cnc(COc2ccc(C(=O)O)cc2Cl)n1-c1ccc(F)cc1` [3-chloro-4-[({5-[1-(3,4-dichlorophenyl)-1-methylethyl]-1-(4-fluorophenyl)-1H-imidazol-2-yl}methyl)oxy]benzoic acid], for which, under setting [1], the EC50 fell in the range of 1000 to 10000 nM. Same read-out and setting: as for `CC(C)(c1ccc(Cl)c(F)c1)c1cnc(SCc2c(F)cccc2Cl)n1-c1ccc(F)cc1` [5-[1-(4-chloro-3-fluorophenyl)-1-methylethyl]-2-{[(2-chloro-6-fluorophenyl)methyl]thio}-1-(4-fluorophenyl)-1H-imidazole], the figure is less than 100 nM. Regarding `CS(=O)(=O)c1ccc(Cc2nnc(SCc3ccc(F)cc3Cl)n2-c2ccc(F)cc2)cc1` [Example 44], under setting [2], the EC50 lay in the range of 1000 to 10000 nM.

With `CC(C)(c1ccc(F)cc1)c1cnc(SCc2ccc(S(=O)(=O)NC(=O)NN3CCCC3)cc2Cl)n1-c1ccc(F)c(F)c1` [3-chloro-4-[({1-(3,4-difluorophenyl)-5-[1-(4-fluorophenyl)-1-methylethyl]-1H-imidazol-2-yl}thio)methyl]-N-[(pyrrolidin-1-ylamino)carbonyl]benzenesulfonamide], under setting [1], the EC50 is 1000 to 10000 nM. `COc1ccc(C(C)(C)c2cnc(C(=O)NCc3ccc(Cl)c(F)c3)n2-c2ccc(F)cc2)cc1OC` [5-{1-[3,4-bis(methyloxy)phenyl]-1-methylethyl}-N-[(4-chloro-3-fluorophenyl)methyl]-1-(4-fluorophenyl)-1H-imidazole-2-carboxamide]: under setting [1], the EC50 lay within 100 to 1000 nM. The same measure, in the same setting: to `CC(C)(O)COc1cc(CSc2ncc(C(C)(C)c3ccc(Cl)c(Cl)c3)n2-c2ccc(F)cc2)ccc1F` [1-({5-[({5-[1-(3,4-dichlorophenyl)-1-methylethyl]-1-(4-fluorophenyl)-1H-imidazol-2-yl}thio)methyl]-2-fluorophenyl}oxy)-2-methylpropan-2-ol] belongs 100 to 1000 nM. As to `CC(C)(c1ccc(Cl)c(Cl)c1)c1cnc(SCC2CCN(c3ccc(F)cc3)CC2)n1-c1ccc(F)cc1` [4-[({5-[1-(3,4-dichlorophenyl)-1-methylethyl]-1-(4-fluorophenyl)-1H-imidazol-2-yl}thio)methyl]-1-(4-fluorophenyl)piperidine], the EC50 under setting [1] is 1000 to 10000 nM. On to `Fc1ccc(-n2c(Cc3ccc(Cl)c(Cl)c3)nnc2SCc2ccc(F)cc2C(F)(F)F)cc1` [Example 33], for which the EC50 under setting [2] was 1000 to 10000 nM. In the case of `CC(C)(c1ccc(S(C)(=O)=O)cc1)c1cnc(SCc2c(F)cccc2Cl)n1-c1ccc(F)cc1` [2-{[(2-chloro-6-fluorophenyl)methyl]thio}-1-(4-fluorophenyl)-5-{1-methyl-1-[4-(methylsulfonyl)phenyl]ethyl}-1H-imidazole], the EC50 under setting [1] lay within 100 to 1000 nM.

In the case of `CC(C)(c1ccc(Cl)c(Cl)c1)c1cnc(S(=O)(=O)Cc2ccc(F)c(F)c2)n1-c1ccc(F)cc1` [5-[1-(3,4-dichlorophenyl)-1-methylethyl]-2-{[(3,4-difluorophenyl)methyl]sulfonyl}-1-(4-fluorophenyl)-1H-imidazole], the EC50 under setting [1] is 100 to 1000 nM. As to `COc1ccc(C(C)(C)c2cnc(S(=O)(=O)CCc3ccc(F)c(Cl)c3)n2-c2ccc(F)cc2)cc1OC` [5-{1-[3,4-bis(methyloxy)phenyl]-1-methylethyl}-2-{[2-(3-chloro-4-fluorophenyl)ethyl]sulfonyl}-1-(4-fluorophenyl)-1H-imidazole], the EC50 under setting [1] was less than 100 nM. For the compound `CC(C)(c1ccc(Cl)c(Cl)c1)c1cnc(SCc2ccc(C(N)=O)cc2F)n1-c1ccc(F)cc1` [4-[({5-[1-(3,4-dichlorophenyl)-1-methylethyl]-1-(4-fluorophenyl)-1H-imidazol-2-yl}thio)methyl]-3-fluorobenzamide], under setting [1], the EC50 is 100 to 1000 nM.

For `CC(C)(c1ccc(Cl)c(Cl)c1)c1cnc(S(=O)(=O)Cc2ccc(F)c(C(F)(F)F)c2)n1-c1ccc(F)cc1` [5-[1-(3,4-dichlorophenyl)-1-methylethyl]-1-(4-fluorophenyl)-2-({[4-fluoro-3-(trifluoromethyl)phenyl]methyl}sulfonyl)-1H-imidazole], the EC50 under setting [1] lay within 100 to 1000 nM. For `CC(C)(c1ccc2c(c1)OCCO2)c1cnc(SCc2c(F)cccc2Cl)n1-c1ccc(F)cc1` [2-{[(2-chloro-6-fluorophenyl)methyl]thio}-5-[1-(2,3-dihydro-1,4-benzodioxin-6-yl)-1-methylethyl]-1-(4-fluorophenyl)-1H-imidazole], under setting [1], the EC50 is less than 100 nM.

On to `CC(C)(c1ccc(Cl)c(Cl)c1)c1cnc(CS(=O)(=O)c2ccc(F)cc2Cl)n1-c1ccc(F)cc1` [2-{[(2-chloro-4-fluorophenyl)sulfonyl]methyl}-5-[1-(3,4-dichlorophenyl)-1-methylethyl]-1-(4-fluorophenyl)-1H-imidazole], for which the EC50 under setting [1] fell in the range of 1000 to 10000 nM. Turning to `COc1ccc(C(C)(C)c2cnc(CNCc3ccc(Cl)c(F)c3)n2-c2ccc(F)cc2)cc1OC` [1-[5-{1-[3,4-bis(methyloxy)phenyl]-1-methylethyl}-1-(4-fluorophenyl)-1H-imidazol-2-yl]-N-[(4-chloro-3-fluorophenyl)methyl]methanamine], the EC50 under setting [1] was less than 100 nM. On the same count and under the same terms, as for `COc1ccc(C(C)(C)c2cnc(C(=O)Nc3c(F)cccc3Cl)n2-c2ccc(F)cc2)cc1OC` [5-{1-[3,4-bis(methyloxy)phenyl]-1-methylethyl}-N-(2-chloro-6-fluorophenyl)-1-(4-fluorophenyl)-1H-imidazole-2-carboxamide], the figure is 1000 to 10000 nM. Still for that read-out and setting: as for `CC(C)(c1ccc(OC(F)(F)F)c(Cl)c1)c1cnc(SCc2ccc(F)cc2Cl)n1-c1ccc(F)cc1` [2-{[(2-chloro-4-fluorophenyl)methyl]thio}-5-(1-{3-chloro-4-[(trifluoromethyl)oxy]phenyl}-1-methylethyl)-1-(4-fluorophenyl)-1H-imidazole], the figure is 1000 to 10000 nM; as for `CC(C)(O)COc1ccc(C(C)(C)c2cnc(SCc3ccc(F)cc3Cl)n2-c2ccc(F)cc2)cc1Cl` [1-[(2-chloro-4-{1-[2-{[(2-chloro-4-fluorophenyl)methyl]thio}-1-(4-fluorophenyl)-1H-imidazol-5-yl]-1-methylethyl}phenyl)oxy]-2-methylpropan-2-ol], 100 to 1000 nM; as for `CC(C)(c1ccc(Cl)c(Cl)c1)c1cnc(S(=O)(=O)Cc2cc(Cl)ccc2Cl)n1-c1ccc(F)cc1` [5-[1-(3,4-dichlorophenyl)-1-methylethyl]-2-{[(2,5-dichlorophenyl)methyl]sulfonyl}-1-(4-fluorophenyl)-1H-imidazole], 100 to 1000 nM. As for `COc1c(Cl)cc(C(C)(C)c2cnc(SCc3ccc(F)c(S(N)(=O)=O)c3)n2-c2ccc(F)cc2)cc1Cl` [5-({[5-{1-[3,5-dichloro-4-(methyloxy)phenyl]-1-methylethyl}-1-(4-fluorophenyl)-1H-imidazol-2-yl]thio}methyl)-2-fluorobenzenesulfonamide], the concentration giving a half-maximal response (EC50) under setting [1] is less than 100 nM.
